Measured values as given in patent US20140128352A1, “COMPOUNDS AND METHODS FOR MODULATING MITOCHONDRIAL METABOLISM AND REACTIVE OXYGEN SPECIES PRODUCTION” (Buck Institute for Research on Aging, priority 2012, published 2014).
Read-outs that look alike come from different tables or passages of the source.

What was measured:
[1] = tested on: ubiquinone binding site of complex I (IQ); assay: High-throughput screen: ROS production from ubiquinone binding site of complex I (IQ), isolated skeletal muscle mitochondria; format: biochemical, rat; details: for IQ: percent change in ROS from DMSO controls; for % Reduction in ROS production (IQ): Table 2, 5 mM succinate, compounds 2.5 μM, percent change from DMSO, positive control −100%
[2] = target: T1, flavin binding site of complex I (IF) (Rattus norvegicus, UniProt Q5XIH3); assay: High-throughput screen: ROS production from flavin binding site of complex I (IF); format: biochemical
T1 construct: freshly isolated muscle mitochondria were assayed; from tissue; host or cells: rat skeletal muscle mitochondria (Wistar, Harlan Laboratories)

[3] = target: T2, outer ubiquinone binding site of complex III (IIIQO) (Rattus norvegicus, UniProt P00159+P20788); assay: High-throughput screen: ROS production from outer ubiquinone binding site of complex III (IIIQO); format: biochemical
T2 construct: freshly isolated muscle mitochondria were assayed; from tissue; host or cells: rat skeletal muscle mitochondria (Wistar, Harlan Laboratories)

[4] = target: T3, succinate dehydrogenase/complex II (SDH) (Rattus norvegicus, UniProt P21913+Q641Z9+Q6PCT8+Q920L2); assay: High-throughput screen: ROS production from succinate dehydrogenase/complex II (SDH); format: biochemical; details: for inhibition at 2.5 µM / SDH: percent change in ROS from DMSO controls; for % Reduction in ROS Production (SDH): Table 5, 15 μM palmitoyl carnitine, 2.5 μM antimycin A, 2 μM myxothiazol, compounds 2.5 μM, percent change from DMSO
T3 construct: freshly isolated muscle mitochondria were assayed; from tissue; host or cells: rat skeletal muscle mitochondria (Wistar, Harlan Laboratories)
Description: (§1) Skeletal muscle mitochondria were isolated from 5-8 week old female Wistar rats (Harlan Laboratories). Minced muscle was homogenized in buffer containing bacterial protease Type VIII prior to differential centrifugation to separate mitochondria from other tissue components. Unless otherwise stated, freshly isolated muscle mitochondria were assayed in buffer containing 120 mM KCl, 5 mM HEPES, 1 mM EGTA, 0.3% (w/v) bovine serum albumin. Where indicated, CaCl2 was added to yield a final free concentration of 250 nM calcium at pH 7.0 at 37° C.
Just prior to use, plates were brought to room temperature and diluted 300-fold with standard buffer (13.3X=33.3 μM). To monitor the performance of each assay throughout screening and to provide intra-plate normalization reference points, DMSO negative controls and known mitochondrial inhibitor positive controls were included on each Master compound plate.
(§2) Total amounts of superoxide and H2O2 production were determined fluorometrically as H2O2, without distinguishing between them, in the presence of exogenous superoxide dismutase (25 units/mL final), horseradish peroxidase (1 unit/mL final), and Amplex UltraRed (25 μM final) as described (Affourtit, C. et al. (2012) Measurement of proton leak and electron leak in isolated mitochondria. Methods Mol. Biol. 810: 165-82). Just prior to use, a bulk 3.3X solution was made in standard buffer and distributed into a 2 mL deep well 96-well transfer plate.
To assess the effects of a compound on ROS production from succinate dehydrogenase/complex II (SDH), Start Solution containing 15 μM palmitoyl carnitine, 2.5 μM antimycin A and 2 μM myxothiazol was distributed into standard 96-well transfer plates. A Biomek FX workstation was programmed to dispense solutions into black 96-well assay plates. Solutions were dispensed to all assay plates in the following order: ROS Detection solution described in Example 3, Mitochondria solution described in Example 1 to a final concentration of 0.3 mg/ml, and Compound dilutions described in Example 2. Duplicate assay plates were made and each was initiated by the addition of 3.3X Start solution containing 15 μM palmitoyl carnitine, 2.5 μM antimycin A and 2 μM myxothiazol. Plates were incubated in the dark at room temperature for 30-40 minutes before acquiring endpoint fluorescence using a Victor 3V plate reader (Perkin Elmer) equipped with 550/590 nm excitation/emission filters.
The fluorescence values in each well were scaled as the percent change from the intra-plate DMSO controls with the appropriate inhibitor positive controls defined as −100%. Following initial scaling, intra-plate normalized values were subjected to Tukey's two-way median polish to remove row and column dependent positional effects (Malo et al., 2006).

[5] = target: T4, glycerol-3-phosphate dehydrogenase (GPDH) (Rattus norvegicus, UniProt P35571); assay: High-throughput screen: ROS production from glycerol-3-phosphate dehydrogenase (GPDH); format: biochemical; design: inhibition: dose or concentration left out as unconfirmed; details: for inhibition / GPDH: percent change in ROS from DMSO controls
T4 construct: The activity of GPDH in intact mitochondria (0.3 mg/mL) was measured; from tissue; host or cells: rat skeletal muscle mitochondria (Wistar, Harlan Laboratories)
T4 sequence (P35571 43-727): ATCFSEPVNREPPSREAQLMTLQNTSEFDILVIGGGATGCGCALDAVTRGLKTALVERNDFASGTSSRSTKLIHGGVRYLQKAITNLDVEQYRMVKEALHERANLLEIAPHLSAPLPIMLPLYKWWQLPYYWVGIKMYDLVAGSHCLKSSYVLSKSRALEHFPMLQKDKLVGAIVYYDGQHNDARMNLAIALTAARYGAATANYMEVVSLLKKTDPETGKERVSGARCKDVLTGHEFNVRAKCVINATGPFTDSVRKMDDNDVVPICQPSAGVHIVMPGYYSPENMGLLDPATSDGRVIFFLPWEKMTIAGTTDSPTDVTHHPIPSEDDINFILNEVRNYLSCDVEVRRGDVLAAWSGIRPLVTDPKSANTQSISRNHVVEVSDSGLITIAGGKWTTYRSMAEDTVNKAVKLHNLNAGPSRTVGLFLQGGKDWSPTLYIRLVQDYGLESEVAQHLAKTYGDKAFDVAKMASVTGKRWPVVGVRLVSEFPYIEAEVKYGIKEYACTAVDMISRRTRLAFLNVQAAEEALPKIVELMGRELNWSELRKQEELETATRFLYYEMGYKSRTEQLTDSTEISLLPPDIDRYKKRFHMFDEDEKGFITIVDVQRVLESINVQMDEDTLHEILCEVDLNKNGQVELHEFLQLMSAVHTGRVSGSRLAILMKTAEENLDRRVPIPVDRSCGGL
Description: as §1
Compounds (10 mM in DMSO) were randomly selected from a library of 24,000 compounds obtained from ChemBridge and curated by the lab of Robert Hughes at the Buck Institute. Master screening plates were prepared using a Biomek FX liquid handling workstation (Beckman) to transfer 1 μL of each compound into individual wells on 96-well storage plates (80 compounds per plate). Master plates were sealed with foil and stored at −80° C. Just prior to use, plates were brought to room temperature and diluted 300-fold with standard buffer (13.3X=33.3 μM). To monitor the performance of each assay throughout screening and to provide intra-plate normalization reference points, DMSO negative controls and known mitochondrial inhibitor positive controls were included on each Master compound plate.
as §2
To assess the effects of a compound on ROS production from glycerol-3-phosphate dehydrogenase (GPDH), Start Solution containing 25 mM glycerol phosphate, 4 μM rotenone, 2.5 μM antimycin A, 1 mM malonate, 2 μM myxothiazol was distributed into standard 96-well transfer plates. A Biomek FX workstation was programmed to dispense solutions into black 96-well assay plates. Solutions were dispensed to all assay plates in the following order: ROS Detection solution described in Example 3, Mitochondria solution described in Example 1 to a final concentration of 0.2 mg/ml, and Compound dilutions described in Example 2. Duplicate assay plates were made and each was initiated by the addition of 3.3X Start solution containing 25 mM glycerol phosphate, 4 μM rotenone, 2.5 μM antimycin A, 1 mM malonate, 2 μM myxothiazol. Plates were incubated in the dark at room temperature for 30-40 minutes before acquiring endpoint fluorescence using a Victor 3V plate reader (Perkin Elmer) equipped with 550/590 nm excitation/emission filters.
The fluorescence values in each well were scaled as the percent change from the intra-plate DMSO controls. […] Following initial scaling, intra-plate normalized values were subjected to Tukey's two-way median polish to remove row and column dependent positional effects (Malo et al., 2006).

[6] = tested on: mitochondrial membrane potential (ΔΨm); assay: Membrane potential (ΔΨm) counterscreen with TMRM; details: malate, nigericin
[7] = Table 7, percent change in ROS from DMSO controls, read-out: IF
[8] = Table 8, percent change in ROS from DMSO controls
[9] = Table 9, percent change in ROS from DMSO controls
[10] = Table 4, 5 mM succinate, 4 μM rotenone, 2.5 μM antimycin A, compounds 2.5 μM, percent change from DMSO, read-out: % Reduction in ROS production (IIIQO)
[11] = Table 7, percent change in ROS from DMSO controls, read-out: IIIQO
[12] = Table 9, percent change in ROS from DMSO controls, read-out: IIIQo
[13] = Table 3, 5 mM glutamate, 5 mM malate, 4 μM rotenone, compounds 2.5 μM, percent change from DMSO, positive control −100%, read-out: % Reduction in ROS production (IF)
[14] = Table 8, percent change in ROS from DMSO controls, read-out: IF
[15] = Table 8, percent change in ROS from DMSO controls, read-out: IIIQO
[16] = Table 7, percent change in ROS from DMSO controls

T1 sequence (Q5XIH3 21-464 limits assumed, one chain of several): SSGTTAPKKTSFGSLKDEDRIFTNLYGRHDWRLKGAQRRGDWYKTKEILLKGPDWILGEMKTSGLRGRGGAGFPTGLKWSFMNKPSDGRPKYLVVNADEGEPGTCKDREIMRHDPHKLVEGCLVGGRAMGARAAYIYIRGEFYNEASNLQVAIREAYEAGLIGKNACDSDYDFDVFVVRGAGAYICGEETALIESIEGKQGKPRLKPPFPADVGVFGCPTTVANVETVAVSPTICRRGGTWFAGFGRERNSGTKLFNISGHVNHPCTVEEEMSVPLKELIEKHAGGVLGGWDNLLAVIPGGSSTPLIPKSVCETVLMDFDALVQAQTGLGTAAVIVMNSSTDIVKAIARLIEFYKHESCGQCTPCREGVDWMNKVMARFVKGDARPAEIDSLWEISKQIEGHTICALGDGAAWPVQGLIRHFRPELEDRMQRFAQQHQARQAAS
T3 sequence (Q920L2 35-656): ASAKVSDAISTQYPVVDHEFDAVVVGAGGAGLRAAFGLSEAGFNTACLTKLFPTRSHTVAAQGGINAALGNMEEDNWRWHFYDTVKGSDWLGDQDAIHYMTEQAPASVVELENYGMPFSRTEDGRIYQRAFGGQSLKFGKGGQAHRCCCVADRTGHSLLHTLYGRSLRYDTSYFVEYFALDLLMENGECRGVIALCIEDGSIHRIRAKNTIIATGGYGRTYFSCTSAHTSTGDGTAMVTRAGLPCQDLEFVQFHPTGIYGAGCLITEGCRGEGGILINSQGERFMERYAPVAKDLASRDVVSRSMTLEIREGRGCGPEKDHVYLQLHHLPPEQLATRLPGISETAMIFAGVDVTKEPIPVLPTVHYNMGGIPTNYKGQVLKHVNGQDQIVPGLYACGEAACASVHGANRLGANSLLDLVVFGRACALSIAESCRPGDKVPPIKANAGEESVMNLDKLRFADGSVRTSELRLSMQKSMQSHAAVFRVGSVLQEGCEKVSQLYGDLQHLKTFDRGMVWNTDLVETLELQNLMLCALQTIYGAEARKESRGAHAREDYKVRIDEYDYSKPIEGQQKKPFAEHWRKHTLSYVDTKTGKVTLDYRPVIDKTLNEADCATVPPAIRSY
T3 sequence (P21913 31-282): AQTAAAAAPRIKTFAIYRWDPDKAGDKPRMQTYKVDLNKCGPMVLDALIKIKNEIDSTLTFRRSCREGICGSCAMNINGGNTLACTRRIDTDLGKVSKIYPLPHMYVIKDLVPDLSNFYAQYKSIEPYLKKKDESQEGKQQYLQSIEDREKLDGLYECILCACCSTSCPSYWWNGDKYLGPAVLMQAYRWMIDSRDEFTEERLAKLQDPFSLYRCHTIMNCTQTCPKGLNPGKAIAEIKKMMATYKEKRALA
T3 sequence (Q641Z9 30-169 limits assumed): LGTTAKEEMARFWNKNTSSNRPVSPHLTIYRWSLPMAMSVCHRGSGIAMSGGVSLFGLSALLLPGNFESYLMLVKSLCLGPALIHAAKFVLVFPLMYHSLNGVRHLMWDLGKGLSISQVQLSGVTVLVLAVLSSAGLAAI
T3 sequence (Q6PCT8 57-159): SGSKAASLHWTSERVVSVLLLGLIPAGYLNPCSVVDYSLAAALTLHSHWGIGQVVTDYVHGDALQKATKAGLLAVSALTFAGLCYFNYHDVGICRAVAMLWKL

| inhibition at 2.5 µM [3, 11] [%] | IIIQO [3, 8] | inhibition at 2.5 µM [3, 12] [%] | inhibition at 2.5 µM ([4]; Table 7) [%] | SDH ([4]; Table 8) | SDH ([4]; Table 9) | inhibition ([5]; Table 7) [%] | GPDH ([5]; Table 8) | GPDH ([5]; Table 9) | Compound | IQ ([1]; Table 7) | IQ ([1]; Table 8) | IQ ([1]; Table 9) | inhibition at 2.5 µM [2, 7] [%] | IF [2, 8] | IF [2, 9] | ΔΨm ([6]; Table 8, glutamate) | ΔΨm ([6]; Table 9, glutamate) | % Reduction in ROS production (IQ) [1] [%] | also measured |
| --- | --- | --- | --- | --- | --- | --- | --- | --- | --- | --- | --- | --- | --- | --- | --- | --- | --- | --- | --- |
| 34.9 | −34.9 | 34.9 | -0.2 | 0.2 | 0.2 | 5.3 | −5.3 | −5.3 | Cc1ccc(CCSc2ccc(F)cc2)cn1 [Compound 35] | 1.3 | 1.3 | 1.3 | 0.7 | −0.7 | −0.7 | 0.6 | 0.6 |  | inhibition at 2.5 µM [3, 10]: 34.9% |
|  |  |  |  |  |  |  |  |  | O=C(Nc1nn[nH]n1)C1CCCCC1 [Compound 76] |  | −24 |  |  |  |  | 0 |  | −24 | inhibition at 2.5 µM [2, 13]: 34%; inhibition at 2.5 µM [2, 14]: 34%; inhibition at 2.5 µM [3, 15]: 0%; inhibition at 2.5 µM ([4]; Table 8): -3%; inhibition ([5]; Table 8): 0% |
| -1.9 | 1.9 | -1.9 | -2.6 | 2.6 | 2.6 | 0.1 | −0.1 | −0.1 | CCSC1=C(C#N)C2(CCCC2)C(C#N)C(=O)N1 (stereo not drawn) [Compound 2] | −52.5 | −52.5 | −52.5 | 7 | −7.0 | −7.0 | −3.4 | −3.4 | −52.5 |  |
|  | −0.8 |  |  | 3.6 | 3.6 |  | −3.3 | −3.3 | O=[N+]([O-])c1ccc(Oc2ccc(S(=O)(=O)Nc3ccc4c(c3)OCCO4)cc2)cc1 [Compound 85] | −50.6 | −50.6 | −50.6 |  | 0.5 | 0.5 | −0.9 | −0.9 | −50.6 | IF [2, 16]: 0.5; IIIQO [3, 16]: −0.8; IIIQO [3, 9]: −0.8; SDH ([4]; Table 7): 3.6; GPDH ([5]; Table 7): −3.3 |
| 24.7 | −24.7 | 24.7 | -1.2 | 1.2 | 1.2 | -2.6 | 2.6 | 2.6 | COc1ccc(-c2ccccc2)cc1NCC1=CC[C@H]2C[C@@H]1C2(C)C [Compound 41] | 0.2 | 0.2 | 0.2 | -6.6 | 6.6 | 6.6 | 2.3 | 2.3 |  | inhibition at 2.5 µM [3, 10]: 24.7% |
| -5.4 | 5.4 | -5.4 | 0.3 | −0.3 | −0.3 | 0.6 | −0.6 | −0.6 | O=C(Nc1ccccc1C(=O)O)c1ccccc1 [Compound 18] | −1.0 | −1.0 | −1.0 | 25.8 | −25.8 | −25.8 | −0.7 | −0.7 |  | inhibition at 2.5 µM [2, 13]: 25.8% |
|  |  |  |  |  |  |  |  |  | COc1ccc(NC(=S)NC(=O)c2ccco2)cc1 [Compound 75] |  | −50 |  |  |  |  | −2 |  | −50 | inhibition at 2.5 µM [2, 13]: 83%; inhibition at 2.5 µM [2, 14]: 83%; inhibition at 2.5 µM [3, 15]: -3%; % Reduction in ROS Production (SDH) [4]: −22%; inhibition at 2.5 µM ([4]; Table 8): 22%; inhibition at 2.5 µM ([5]; Table 6, 25 mM glycerol phosphate, rotenone, antimycin A, malonate, myxothiazol, compounds 2.5 μM, scaled to IQ positive controls, read-out: % Reduction in ROS Production (GPDH)): 16%; inhibition ([5]; Table 8): 16% |
| 9 | −9.0 | 9 | 2.8 | −2.8 | −2.8 | 1.2 | −1.2 | −1.2 | CC1=CC(C)C(C2OCC(CN3CCCCC3)O2)C(C)C1 (stereo not drawn) [Compound 13] | 0.1 | 0.1 | 0.1 | 39 | −39.0 | −39.0 | −0.5 | −0.5 |  | inhibition at 2.5 µM [2, 13]: 39% |
| -5.4 | 5.4 | -5.4 | 27.4 | −27.4 | −27.4 | -1.7 | 1.7 | 1.7 | Oc1nnc(Cc2ccncc2)c2ccccc12 [Compound 72] | 0.4 | 0.4 | 0.4 | -2.6 | 2.6 | 2.6 | 1.0 | 1.0 |  | % Reduction in ROS Production (SDH) [4]: −27.4% |
|  |  |  |  |  |  |  |  |  | CN(C)c1ccc(C(=C2CN3CCC2CC3)c2ccc(N(C)C)cc2)cc1 [Compound 81] |  | 2 |  |  |  |  | −1 |  |  | inhibition at 2.5 µM [2, 14]: 49%; inhibition at 2.5 µM [3, 15]: 0%; inhibition at 2.5 µM ([4]; Table 8): 1%; inhibition ([5]; Table 8): 13% |
| 2.8 | −2.8 | 2.8 | -1 | 1.0 | 1.0 | 4.3 | −4.3 | −4.3 | CC(=O)Nc1ccc(S(=O)(=O)Nc2cccc(C)c2)cc1 [Compound 10] | −24.1 | −24.1 | −24.1 | -3.3 | 3.3 | 3.3 | −0.2 | −0.2 | −24.1 |  |
|  | 0.8 |  |  | 0.7 | 0.7 |  | −0.2 | −0.2 | O=[N+]([O-])c1ccc(Oc2ccc(S(=O)(=O)Nc3ccc(F)cc3)cc2)cc1 [Compound 84] | −47.7 | −47.7 | −47.7 |  | −1.4 | −1.4 | −1.5 | −1.5 | −47.7 | IF [2, 16]: −1.4; IIIQO [3, 16]: 0.8; IIIQO [3, 9]: 0.8; SDH ([4]; Table 7): 0.7; GPDH ([5]; Table 7): −0.2 |
| -9.2 | 9.2 | -9.2 | -2.1 | 2.1 | 2.1 | -5.6 | 5.6 | 5.6 | C=CCSc1nc(N)c(C#N)c(CC)c1C#N [Compound 7] | −36.5 | −36.5 | −36.5 | -1.3 | 1.3 | 1.3 | −0.5 | −0.5 | −36.5 |  |

| Compound | inhibition at 2.5 µM [3, 11] [%] | IIIQO [3, 8] | inhibition at 2.5 µM [3, 12] [%] | inhibition at 2.5 µM ([4]; Table 7) [%] | SDH ([4]; Table 8) | SDH ([4]; Table 9) | inhibition ([5]; Table 7) [%] | GPDH ([5]; Table 8) | GPDH ([5]; Table 9) | IQ ([1]; Table 7) | IQ ([1]; Table 8) | IQ ([1]; Table 9) | inhibition at 2.5 µM [2, 7] [%] | IF [2, 8] | IF [2, 9] | ΔΨm ([6]; Table 8, glutamate) | ΔΨm ([6]; Table 9, glutamate) | % Reduction in ROS production (IQ) [1] [%] | also measured |
| --- | --- | --- | --- | --- | --- | --- | --- | --- | --- | --- | --- | --- | --- | --- | --- | --- | --- | --- | --- |
| COc1ccc(C2C(C#N)=C(N)Oc3c2c(=O)oc2ccccc32)cc1O (stereo not drawn) [Compound 74] | 7.6 | −7.6 | 7.6 | 20.9 | −20.9 | −20.9 | 3.5 | −3.5 | −3.5 | −0.7 | −0.7 | −0.7 | -0.4 | 0.4 | 0.4 | 0.8 | 0.8 |  | % Reduction in ROS Production (SDH) [4]: −20.9% |
